Here are results for one sequence from PMC10065799, “High-throughput profiling of sequence recognition by tyrosine kinases and SH2 domains using bacterial peptide display” (eLife, 2023).

The target of this experiment is T1, c-Abl kinase domain (Mus musculus, UniProt P00520).
T1 sequence (P00520 242-493 limits assumed): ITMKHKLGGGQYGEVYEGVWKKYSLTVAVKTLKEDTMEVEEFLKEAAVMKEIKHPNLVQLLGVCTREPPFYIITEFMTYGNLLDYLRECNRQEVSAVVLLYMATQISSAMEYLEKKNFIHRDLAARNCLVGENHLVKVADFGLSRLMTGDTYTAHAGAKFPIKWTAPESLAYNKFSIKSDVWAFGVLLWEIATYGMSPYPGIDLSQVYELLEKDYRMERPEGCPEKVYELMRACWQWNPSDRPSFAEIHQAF
Put plainly: pTyr-Var library bacterial peptide display kinase screen (enrichment scores). The following applies: variant versus reference peptide. Type of experiment: biochemical.

For the sequence ATGLIYIGSHD [AASDH_Y870_T865A], the “c-Abl difference (mean log2 variant - mean log2 reference)” value came to 0.7644.
